Test results taken from ChEMBL document CHEMBL5335806, “Cytotoxic leuconoxine-type diazaspiroindole alkaloids isolated from Cryptolepis dubia” (Bioorg Med Chem Lett, 2024).
≈ marks a conversion by molar mass, not a printed value.

How the values were obtained:
[1] = system: MDA-MB-231; assay: Cytotoxicity against human MDA-MB-231 cells assessed as inhibition of cell viability incubated for 72 hrs; assay type: functional, cell-based; conditions: MDA-MB-231, 72 h
[2] = system: HT-29; assay: Cytotoxicity against human HT-29 cells assessed as inhibition of cell viability incubated for 72 hrs; assay type: functional, cell-based; conditions: HT-29, 72 h
[3] = system: MDA-MB-435; assay: Cytotoxicity against human MDA-MB-435 cells assessed as inhibition of cell viability incubated for 72 hrs; assay type: functional, cell-based; conditions: MDA-MB-435, 72 h
[4] = system: OVCAR-3; assay: Cytotoxicity against human OVCAR-3 cells assessed as inhibition of cell viability incubated for 72 hrs; assay type: functional, cell-based; conditions: OVCAR-3, 72 h
[5] = system: Escherichia coli; assay: Antibacterial activity against Escherichia coli TISTR 780 by a two-fold serial dilution method; assay type: functional
[6] = system: Staphylococcus epidermidis; assay: Antibacterial activity against Staphylococcus epidermidis by a two-fold serial dilution method; assay type: functional
[7] = system: Micrococcus luteus; assay: Antibacterial activity against Micrococcus luteus by a two-fold serial dilution method; assay type: functional
[8] = system: Salmonella typhimurium; assay: Antibacterial activity against Salmonella typhimurium TISTR 291 by a two-fold serial dilution method; assay type: functional, Salmonella enterica subsp. enterica serovar Typhimurium; conditions: Salmonella enterica

CC[C@@]12CCCN3C(=O)C(Cl)=C4c5ccccc5N(C(=O)CC1)[C@]432
IC50 [1]: > 10 µM | IC50 [2]: > 10 µM | IC50 [3]: > 10 µM | IC50 [4]: 5.9 µM

CC[C@@]12CCCN3C(=O)C=C4c5ccccc5N(C(=O)CC1)[C@]432
MIC [5]: 64 µg/mL (≈ 208 µM) | MIC [6]: 64 µg/mL (≈ 208 µM) | IC50 [1]: > 10 µM | IC50 [2]: > 10 µM | MIC [7]: 64 µg/mL (≈ 208 µM) | IC50 [3]: > 10 µM | IC50 [4]: 9.1 µM | MIC [8]: 64 µg/mL (≈ 208 µM)
